Results on 1 compound are retold here after PMC6015222, “Targeting Phosphopeptide Recognition by the Human BRCA1 Tandem BRCT Domain to Interrupt BRCA1-Dependent Signaling” (Cell Chemical Biology, 2018).

SMILES strings stand for the structures.

One data set has as its target T1, TOPBP1 BRCT 1/2 (Homo sapiens, UniProt Q92547).
T1 construct: TOPBP1 BRCT 1/2 residues 1-290; 6x His (N); made in house; host or cells: E. coli BL21(DE3)
As to the kind of experiment: Competitive MST selectivity: TOPBP1 1/2. It counts as binding. The procedure:
(§1) Protein domains used in the assay were labeled with NT-647-NHS fluorescent dye using the Monolith NT™ Protein Labeling Kit (NanoTemper Technologies). Assays were carried out in 20mM Tris buffer, pH 7.4, with 200mM NaCl, 0.05% Tween-20 and 2mM DTT. For the direct binding assay, 10μl of labeled protein at a final concentration of 20nM was mixed with 10μl of test compound and incubated on ice for 10 min. For the competitive assay, 10μl of labeled protein at a final concentration of 20nM was mixed with 2μM cognate peptide substrate at the EC80 concentration determined by prior titration using a 16-point serial dilution by direct-binding MST. For both assays, samples prepared as above were centrifuged at 15000 rpm at 4°C for 10 min and 4μl of the supernatant was loaded into premium glass capillaries (NanoTemper Technologies). MST analysis was performed at MST power of 40% and LED power of 80%, at 22°C temperature using a Monolith NT.115 (NanoTemper Technologies). An initial “Capillary Scan” was performed to scan for fluorescence across the length of the capillary tray to determine the exact position of each capillary before the MST measurement was started. Test compounds were assayed at 16 different concentrations by serial dilution, and data were analysed using NanoTemper analysis software. Kd values were determined using “T-jump + Thermophoresis” settings. […]

For another data set, the system named is HEK293 cells. Kind of data set: Cell viability after 1 Gy irradiation (calcein AM dye and cell counting). The class given is cell-based, human. Conditions: 1–100 μM added 1 hr before 1 Gy, viability 7 days later. As to the method: HEK293 cells stably harboring plasmids for Tet-inducible expression of tBRCT domains were seeded at a density of 60,000 cells/35mm dish. Compound addition or inducible expression of BRCA1 tBRCT were performed as indicated, when cells were ∼30% confluent, before exposure to 1Gy irradiation. Cells were replenished with media every 3rd day for 7 days, re-suspended in cell dissociation buffer, which was neutralized in 1x PBS. Cells were mixed thoroughly to ensure single cell suspension before measurement of viability using Calcein AM dye and/or cell counting with a hemocytometer. Cell survival fractions were measured using fluorescence readout of Calcein AM with the Tecan Infinite M1000 Pro reader (485nm excitation and 515nm emission) and data were normalized to untreated controls across treatment groups.

A further data set deals with MDC1 foci. As to the kind of experiment: Radiation-induced nuclear MDC1 foci, HEK293 cells. It counts as cell-based, human. The note with it: 100 μM added 6 hr after 16 Gy. As to the method:
(§2) HEK293 cells stably harboring plasmids for Tet-inducible expression of tBRCT domains were seeded at 30,000 cells/well on Matrigel-coated 96-well plates, and treated as indicated. Cells were fixed in 2.5% PFA, for 20’ at RT and incubated in 1x PBS with 10% FBS plus 0.5% TritonX-100 for 1 h for blocking and permeabilization. Primary antibody staining was performed at the indicated dilutions in PBST-BSA buffer (0.7mg/ml BSA, 0.05% Tween-20 in 1XPBS) for 1h at RT. Cells were then extensively washed in PBST-BSA buffer and stained with goat-anti-mouse Alexa 488 secondary antibody (Invitrogen), at 1:1000 dilution along with 2.5μg/ml DAPI for nuclear staining. […] Images were acquired on a high-content imaging platform (Cellomics ArrayScan VTI HCS Reader (Thermo Fisher Scientific)) using a 40x objective. On average ∼800 fields from 6-well replicates, containing a total of ∼10-20K cells were imaged per treatment group and quantified using image analysis software (in-house algorithms using MatLab and commercially available HCS studio 2.0 from Thermo Fisher Scientific). […] Cut-off values for foci number per cell specifying the maximal difference between control and irradiated samples were determined to calculate the percentage of cells positive for radiation-induced foci. […]

A further data set has as its target T2, BRCA1 tBRCT (Homo sapiens, UniProt P38398).
T2 construct: BRCA1 tBRCT residues 1646-1859; made in house; host or cells: E. coli BL21(DE3)
Kind of data set: Competitive MST: inhibition of BACH1 phosphopeptide binding to BRCA1 tBRCT. Conditions: MST, BACH1 phosphopeptide vs BRCA1 tBRCT; mean ± SD of three experiments; NB, no binding. The procedure:
Protein domains used in the assay were labeled with NT-647-NHS fluorescent dye using the Monolith NT™ Protein Labeling Kit (NanoTemper Technologies). Assays were carried out in 20mM Tris buffer, pH 7.4, with 200mM NaCl, 0.05% Tween-20 and 2mM DTT. For the direct binding assay, 10μl of labeled protein at a final concentration of 20nM was mixed with 10μl of test compound and incubated on ice for 10 min. For the competitive assay, 10μl of labeled protein at a final concentration of 20nM was mixed with 2μM cognate peptide substrate at the EC80 concentration determined by prior titration using a 16-point serial dilution by direct-binding MST. For both assays, samples prepared as above were centrifuged at 15000 rpm at 4°C for 10 min and 4μl of the supernatant was loaded into premium glass capillaries (NanoTemper Technologies). MST analysis was performed at MST power of 40% and LED power of 80%, at 22°C temperature using a Monolith NT.115 (NanoTemper Technologies). An initial “Capillary Scan” was performed to scan for fluorescence across the length of the capillary tray to determine the exact position of each capillary before the MST measurement was started. Test compounds were assayed at 16 different concentrations by serial dilution, and data were analysed using NanoTemper analysis software. Kd values were determined using “T-jump + Thermophoresis” settings. The change in thermophoresis between different experimental conditions was expressed as the change in the normalized fluorescence (ΔFnorm), which is defined as Fhot/Fcold (F-values correspond to average fluorescence values between defined areas in the curve under steady-state conditions under control (Fcold) or experimental (Fhot) conditions. Titration of the non-fluorescent ligand causes a gradual change in thermophoresis, which is plotted as ΔFnorm to yield a binding curve, which was then fitted to derive binding constants.

A further data set has as its system RPA32 foci. Kind of data set: Radiation-induced nuclear RPA32 foci. The class given is cell-based, human. The note with it: 100 μM, 16 Gy, as Figure 5A. The procedure:
as §2

Another data set deals with T3, ECT2 BRCT (Homo sapiens, UniProt Q9H8V3).
T3 construct: ECT2 BRCT residues 22-326; 6x His (N); made in house; host or cells: E. coli C41(DE3)
T3 sequence (Q9H8V3 22-326 isoform Q9H8V3-4): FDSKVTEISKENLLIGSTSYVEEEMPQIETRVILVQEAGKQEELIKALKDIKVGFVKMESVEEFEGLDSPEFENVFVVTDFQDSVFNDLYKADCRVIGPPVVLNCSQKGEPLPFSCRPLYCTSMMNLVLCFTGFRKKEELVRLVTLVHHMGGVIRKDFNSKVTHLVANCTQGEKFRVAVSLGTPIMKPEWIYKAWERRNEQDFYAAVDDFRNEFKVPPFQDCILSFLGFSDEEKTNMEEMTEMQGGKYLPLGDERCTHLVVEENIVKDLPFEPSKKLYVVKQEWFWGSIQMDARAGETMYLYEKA
Kind of data set: Competitive MST selectivity: ECT2. It counts as binding. As to the method: as §1

The target in a further data set is T4, TOPBP1 tBRCT 7/8 (Homo sapiens, UniProt Q92547).
T4 construct: TOPBP1 tBRCT 7/8 residues 1264–1493; made in house; host or cells: E. coli BL21(DE3*)
As to the kind of experiment: Competitive MST selectivity: TOPBP1 7/8. It counts as binding. As to the method:
as §1

Another data set has as its system RAD51 foci. Kind of data set: Radiation-induced nuclear RAD51 foci. It counts as cell-based, human. The note with it: 100 μM, 16 Gy, as Figure 5A. As to the method: as §2

Turning to `O=C(c1ccc2nc(-c3ccccc3)[nH]c2c1)N1CCN(Cc2ccccc2F)CC1` [Bractoppin, (4-(2-fluorobenzyl)piperazin-1-yl) (2-phenyl-1H-benzo[d]imidazol-6-yl) methanone], at TOPBP1 BRCT 1/2, the “binding to fluorescently labeled TOPBP1 1/2 tBRCT domain” value is on record as “does not detectably bind”. Besides, in the data set with HEK293 cells, the “effect on cytotoxicity induced by exposure to 1 Gy IR” value is given as “significantly enhances cytotoxicity”. In the data set on MDC1 foci, the “effect on radiation-induced accumulation of MDC1 at sites of DNA damage” value is given as “little effect”. Further, at BRCA1 tBRCT, the IC50 was found to be 74 nM. The “effect on RPA32 accumulation” value in the data set on RPA32 foci is “little effect”. Moreover, on ECT2 BRCT, the “binding to fluorescently labeled ECT2 tBRCT domain” value was “does not detectably bind”. The “binding to fluorescently labeled TOPBP1 7/8 tBRCT domain” value at TOPBP1 tBRCT 7/8 is given as “does not detectably bind”. Besides, the “effect on IR-induced RAD51 foci” value with RAD51 foci is on record as “selectively suppresses”.
